In PMC6274284 (Molecules, 2016):

Key:
[1] = target: T1, hGRX1 (Homo sapiens, UniProt P35754, C83S); type: binding
[2] = tested on: hGRX
[3] = target: T1, hGRX1; assay: biochemical; type: binding
[4] = target: T1, hGRX1; type: binding; remark: listed apart in the source

T1 sequence (P35754 whole entry C83S, looked up): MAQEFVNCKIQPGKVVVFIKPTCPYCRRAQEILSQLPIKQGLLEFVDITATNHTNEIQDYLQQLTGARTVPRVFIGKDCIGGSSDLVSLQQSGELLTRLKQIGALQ

Q: How did the “MaxRel.STD hGRX1” value [1] turn out when `OCc1cc(-c2cccs2)[nH]n1` [RK126] was run?
A: The value was 23.4%.

Q: How did the “Reaction half life, hGRX” value ([2]; human) turn out when `C=CC(N)=O` [acrylamide, reference compound] was run?
A: The value was “about 20 h”.

Q: With `O=C(O)c1ccc(-n2cccc2)cc1` [RK207] as the compound, how does the “MaxRel.STD hGRX1” value [1] read?
A: The value was 0.5%.

Q: What about the Kd [3] of the same compound?
A: The Kd was 2.45 ± 0.52 mM.

Q: With `Cn1nc(C(=O)O)cc1-c1ccccc1` [RK246] as the compound, how does the “MaxRel.STD hGRX1” value [1] read?
A: The value was 0.6%.

Q: And the Kd [3]?
A: Its Kd is 5.22 ± 1.16 mM.

Q: How did the “MaxRel.STD hGRX1” value [1] turn out when `COC(=O)c1cccc2cc[nH]c12` [RK028] was run?
A: The value was 11.2%.

Q: `COCc1cc(=O)oc2cc(N)ccc12` [RK411] was tested. Which “MaxRel.STD hGRX1” value [1] did it give?
A: Its value is 13.7%.

Q: How did the “MaxRel.STD hGRX1” value [1] turn out when `COCc1cc(=O)oc2cc(O)c(Cl)cc12` [RK450] was run?
A: Its value is 37.1%.

Q: Which “trNOE binding result, hGRX1” value [4] does the source give for `Nc1ccccc1N1CCNCC1` [RK155] here?
A: The value was “did not bind”.

Q: For `C=CC(=O)NCc1ccn(-c2ccc(C(=O)OC)cc2)c1` [compound 5, Methyl 4-(3-(Acrylamidomethyl)-1H-pyrrol-1-yl)benzoate], which “Enhancement of rate of reaction over naked acrylamide, hGRX” value [2] is on record?
A: The value was “about 35 fold”.

Q: How did the “MaxRel.STD hGRX1” value [1] turn out when `Nc1ccc(CN2CCOCC2)cc1` [RK428] was run?
A: The value was 0.6%.

Q: `O=C(O)c1ccc(-c2cnco2)cc1` [RK036] was tested. Which “MaxRel.STD hGRX1” value [1] did it give?
A: The value was 2.1%.
